The source of these data is PMC10341549, “Inhibitory Investigations of Acyl-CoA Derivatives against Human Lipoxygenase Isozymes” (International Journal of Molecular Sciences, 2023).

Broadly, the IC50 is the concentration that inhibits the measured activity by half. Higher therefore signals weaker potency in that assay. What is called Km is the concentration of substrate that gives half-maximal velocity.

In one test the target is T1, h5-LOX (Homo sapiens, UniProt P09917, C241A/C562A/D45S/DEL41-43/F15H/K654E/K655N/K656L/L77S/N44G/W14E/W76G).
T1 sequence (P09917 with tags, fused parts or gaps W14E/F15H/DEL41-43/N44G/D45S/W76G/L77S/C241A/C562A/K654E/K655N/K656L): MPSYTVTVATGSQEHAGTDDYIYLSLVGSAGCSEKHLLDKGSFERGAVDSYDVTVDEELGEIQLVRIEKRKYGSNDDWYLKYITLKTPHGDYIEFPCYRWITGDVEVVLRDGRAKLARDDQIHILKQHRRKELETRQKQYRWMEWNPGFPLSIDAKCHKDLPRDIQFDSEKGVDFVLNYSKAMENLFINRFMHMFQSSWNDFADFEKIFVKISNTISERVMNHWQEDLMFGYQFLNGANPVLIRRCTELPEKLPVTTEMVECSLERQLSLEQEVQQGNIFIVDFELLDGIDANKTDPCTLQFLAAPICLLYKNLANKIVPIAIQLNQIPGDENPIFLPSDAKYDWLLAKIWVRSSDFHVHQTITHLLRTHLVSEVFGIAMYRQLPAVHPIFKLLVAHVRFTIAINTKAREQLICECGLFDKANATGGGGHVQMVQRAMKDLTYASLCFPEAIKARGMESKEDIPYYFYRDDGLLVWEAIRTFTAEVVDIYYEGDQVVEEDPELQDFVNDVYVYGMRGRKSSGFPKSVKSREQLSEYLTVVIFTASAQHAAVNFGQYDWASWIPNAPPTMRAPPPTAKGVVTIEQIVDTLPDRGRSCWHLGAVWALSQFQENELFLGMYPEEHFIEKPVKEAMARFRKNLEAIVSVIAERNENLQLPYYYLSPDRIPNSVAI
In words: IC50 determination against h5-LOX. The test is classed as biochemical. The conditions noted are these: 10 μM AA, 50 mM HEPES pH 7.5, 200 µM ATP, ammonium-sulfate precipitate enzyme, 22 °C. As to the method:
Overexpression and purification of his-tagged wild-type h12-LOX (Uniprot entry P18054), h15-LOX-1 (Uniprot entry P16050), and h15-LOX-2 (Uniprot entry O15296) were performed using nickel-affinity chromatography. The purity of h12-LOX, h15-LOX-1, and h15-LOX-2 was assessed using SDS gel as greater than 85%, and metal content was assessed with a Finnigan inductively coupled plasma mass spectrometer (ICP-MS, Thermo Fischer Scientific, San Jose, USA) via comparison with iron standard solution. Cobalt-EDTA was used as an internal standard. WT h5-LOX (UniProt entry P09917) was expressed in Rosetta 2 cells (Novagen) transformed with the pET14b-Stable-5-LOX plasmid (a gift from Marcia Newcomer of Louisiana State University) and grown in Terrific Broth containing 34 μg/mL chloramphenicol and 100 μg/mL ampicillin at 37 °C for 3.5 h, then placed at 20 °C for an additional 26 h. Cells were pelleted and resuspended in 50 mM Tris (pH 8.0), 500 mM NaCl, 20 mM imidazole with 1 μM pepstatin, 100 μM PMSF, and DNaseI (Sigma, Kanagawa, Japan). The cells were lysed in a French pressure cell and centrifuged at 40,000× g for 20 min at 4 °C. Saturated ammonium sulfate was added to achieve a final solution of 10% and inverted several times. The lysate was centrifuged at 40,000× g for 10 min at 4 °C. The pellet was discarded, and the supernatant was increased to a final concentration of 50% ammonium sulfate. The supernatant was rotated for 10 min at 4 °C then centrifuged at 40,000× g for 10 min at 4 °C. The pellet was split into 150 mg aliquots. The WT h5-LOX used for the kinetics in this work was not purified due to a dramatic loss in activity and was therefore prepared as an ammonium-sulfate precipitate.
IC50 values for each acyl-CoA were measured against h5-LOX, h12-LOX, h15-LOX-1, and h15-LOX-2. […] The fastest rates over 15 s intervals were recorded. […]

The next test concerns the target T2, h15-LOX-1 (Homo sapiens, UniProt P16050).
T2 construct: His tag; made in house
T2 sequence (P16050 1-662): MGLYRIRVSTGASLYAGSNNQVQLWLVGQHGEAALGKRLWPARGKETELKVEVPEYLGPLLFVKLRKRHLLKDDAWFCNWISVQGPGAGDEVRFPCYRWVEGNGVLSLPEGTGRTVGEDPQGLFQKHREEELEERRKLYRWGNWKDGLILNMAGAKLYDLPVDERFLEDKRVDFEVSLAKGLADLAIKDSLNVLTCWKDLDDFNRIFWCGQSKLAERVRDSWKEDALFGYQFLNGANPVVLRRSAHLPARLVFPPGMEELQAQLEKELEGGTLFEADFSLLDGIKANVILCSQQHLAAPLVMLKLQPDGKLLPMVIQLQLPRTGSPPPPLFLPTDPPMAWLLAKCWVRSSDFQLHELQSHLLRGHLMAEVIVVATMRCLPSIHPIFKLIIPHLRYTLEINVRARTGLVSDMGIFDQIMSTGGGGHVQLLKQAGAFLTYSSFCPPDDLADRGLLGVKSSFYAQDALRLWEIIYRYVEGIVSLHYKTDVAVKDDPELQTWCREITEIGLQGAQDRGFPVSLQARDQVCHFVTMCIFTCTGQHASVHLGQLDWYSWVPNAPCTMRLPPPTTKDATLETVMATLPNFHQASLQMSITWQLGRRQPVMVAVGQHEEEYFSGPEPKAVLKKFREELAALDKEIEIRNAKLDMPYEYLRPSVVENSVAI
The experiment in a line: Substrate activity and kinetic parameters with h15-LOX-1. The test is classed as biochemical.

Where [1] appears, read: h15-LOX-1, compared with published values [31].

The structures appear in SMILES notation. Some results are limits rather than exact numbers.

For `CC/C=C\C/C=C\C/C=C\C/C=C\C/C=C\C/C=C\CCC(=O)SCCNC(=O)CCNC(=O)C(O)C(C)(C)COP(=O)(O)OP(=O)(O)OC[C@H]1O[C@@H](n2cnc3c(N)ncnc32)[C@H](O)[C@@H]1OP(=O)(O)O` (some centres unmarked) [Docosahexaenoyl CoA (22:6), docosahexaenoyl-coenzyme A (22:6)], on h5-LOX, the 50% inhibitory concentration (IC50) is > 200 µM.

Take `CCCCC/C=C\C/C=C\CCCCCCCC(=O)SCCNC(=O)CCNC(=O)[C@H](O)C(C)(C)COP(=O)(O)OP(=O)(O)OC[C@H]1O[C@@H](n2cnc3c(N)ncnc32)[C@H](O)[C@@H]1OP(=O)(O)O` [Linoleoyl-CoA (18:2), linoleoyl-CoA]: the IC50 against h5-LOX is > 50 µM. The Km at h15-LOX-1 (as substrate of h15-LOX-1, 22 °C) is 12 µM. In addition, on h15-LOX-1 (as substrate of h15-LOX-1, 22 °C, listed as linoleoyl-CoA), the kcat is listed as 7.5 (0.4) s^−1. In addition, the kcat on h15-LOX-1 (as substrate of h15-LOX-1, 22 °C, listed as linoleoyl-CoA (18:2)) was 7.5 ± 0.4 s⁻¹. Moreover, on h15-LOX-1 (setting [1]), the “kcat fold less than free linoleic acid” value is recorded as 1.3 fold and the “kcat/KM fold less than free linoleic acid” value was determined as 7 fold.

As for `CCCCC/C=C\C/C=C\C/C=C\CCCCC(=O)SCCNC(=O)CCNC(=O)[C@H](O)C(C)(C)COP(=O)(O)OP(=O)(O)OC[C@H]1O[C@@H](n2cnc3c(N)ncnc32)[C@H](O)[C@@H]1OP(=O)(O)O` [ɣ-Linolenoyl-CoA (18:3), ɣ-linolenoyl-coenzyme A (18:3)], on h5-LOX, the IC50 is > 200 µM.
